Laboratory results as given in patent US9321767B2, “Azabenzimidazoles as respiratory syncytial virus antiviral agents” (JANSSEN SCIENCES IRELAND UC, priority 2010, dated 2016).
pEC50: −log10 of the molar value.

Key:
[1] = test system: rgRSV224 virus; assay: microbe, parasite or virus in culture; format: cell-based, respiratory syncytial virus (RSV); conditions: human respiratory syncytial virus, HeLa, 72 h, read-out: RSV-wt_EC50
Description: (§1) Black 96-well clear-bottom microtiter plates (Corning, Amsterdam, The Netherlands) were filled in duplicate using a customized robot system with serial 4-fold dilutions of compound in a final volume of 50 μl culture medium [RPMI medium without phenol red, 10% FBS, 0.04% gentamycin (50 mg/mL) and 0.5% DMSO]. Then, 100 μl of a HeLa cell suspension (5×10^4 cells/mL) in culture medium was added to each well followed by the addition of 50 μl rgRSV224 (MOI=0.02) virus in culture medium using a multidrop dispenser (Thermo Scientific, Erembodegem, Belgium). rgRSV224 virus is an engineered virus that includes an additional GFP gene (Hallak et al, 2000) and was in-licensed from the NIH (Bethesda, Md., USA). Medium, virus- and mock-infected controls were included in each test. Cells were incubated at 37° C. in a 5% CO2 atmosphere. Three days post-virus exposure, viral replication was quantified by measuring GFP expression in the cells by a MSM laser microscope (Tibotec, Beerse, Belgium). The EC50 was defined as the 50% inhibitory concentration for GFP expression. In parallel, compounds were incubated for three days in a set of white 96-well microtitier plates (Corning) and the cytotoxicity of compounds in HeLa cells was determined by measuring the ATP content of the cells using the ATPlite kit (PerkinElmer, Zaventem, Belgium) according to the manufacturer's instructions. The CC50 was defined as the 50% concentration for cytotoxicity.

[2] = test system: HeLa cells; assay: Cytotoxicity in HeLa cells, ATP content (ATPlite kit); format: cell-based; conditions: HeLa cells, three days incubation, ATP content
Description: as §1

| Structure (SMILES) | pEC50 [1] | TOX-HELA_EC50 [2] |
| --- | --- | --- |
| CC(C)CCn1c(Cn2c(=O)n(C3CC3)c3ccccc32)nc2ncccc21 [Compound 4, 1-cyclopropyl-3-((1-isopentyl-1H-imidazo[4,5-b]pyridin-2-yl)methyl)-1H-benzo[d]imidazol-2(3H)-one] | 8.15 | >9.836 µM |
| CC(C)CCn1c(Cn2c(=O)n(C3CC3)c3ccncc32)nc2ncccc21 [Compound 5, 1-cyclopropyl-3-((1-isopentyl-1H-imidazo[4,5-b]pyridin-2-yl)methyl)-1H-imidazo[4,5-c]pyridin-2(3H)-one] | 8.06 | >98.3603 µM |
| CC(C)CCn1c(Cn2c(=O)n(C3CC3)c3ccc(F)cc32)nc2nc(Cl)ccc21 [Compound 6, 3-((5-chloro-1-isopentyl-1H-imidazo[4,5-b]pyridin-2-yl)methyl)-1-cyclopropyl-5-fluoro-1H-benzo[d]imidazol-2(3H)-one] | 8.06 | >9.836 µM |
| CS(=O)(=O)CCCn1c(Cn2c(=O)n(C3CC3)c3ccncc32)nc2ncccc21 [Compound 7, 1-cyclopropyl-3-((1-(3-(methylsulfonyl)propyl)-1H-imidazo[4,5-b]pyridin-2-yl)methyl)-1H-imidazo[4,5-c]pyridin-2(3H)-one] | 7.86 | >9.836 µM |
| CC(C)CCn1c(Cn2c(=O)n(C3CC3)c3ccc(F)cc32)nc2ncccc21 [Compound 8, 1-cyclopropyl-5-fluoro-3-((1-isopentyl-1H-imidazo[4,5-b]pyridin-2-yl)methyl)-1H-benzo[d]imidazol-2(3H)-one] | 7.80 | >9.836 µM |
| CC(C)CCn1c(Cn2c(=O)n(C3COC3)c3ccncc32)nc2ncccc21 [Compound 9, 3-((1-isopentyl-1H-imidazo[4,5-b]pyridin-2-yl)methyl)-1-(oxetan-3-yl)-1H-imidazo[4,5-c]pyridin-2(3H)-one] | 7.24 | >9.836 µM |
| COCCCn1c(Cn2c(=O)n(C3CC3)c3ccncc32)nc2ncccc21 [Compound 10] | 7.05 | 4.756 µM |
| O=c1n(Cc2nc3ncccc3n2CCCF)c2cnccc2n1C1CC1 [Compound 11] | 7.04 | >9.836 µM |
| COCCCn1c(Cn2c(=O)n(C3COC3)c3ccncc32)nc2ncccc21 [Compound 12, 3-((1-(3-methoxypropyl)-1H-imidazo[4,5-b]pyridin-2-yl)methyl)-1-(oxetan-3-yl)-1H-imidazo[4,5-c]pyridin-2(3H)-one] | 5.71 | >98.3603 µM |
| CC(C)CCn1c(Cn2c(=O)n(C3CC3)c3ccccc32)nc2nc(Cl)ccc21 [Compound 13, 3-((5-chloro-1-isopentyl-1H-imidazo[4,5-b]pyridin-2-yl)methyl)-3-cyclopropyl-1H-benzo[d]imidazol-2(3H)-one] | 8.64 | >9.84 µM |
| O=c1n(Cc2nc3nc(Cl)ccc3n2CCCCO)c2cnccc2n1C1CC1 [Compound 14, 3-((5-chloro-1-(4-hydroxybutyl)-1H-imidazo[4,5-b]pyridin-2-yl)methyl)-1-cyclopropyl-1H-imidazo[4,5-c]pyridin-2(3H)-one] | 8.22 | >9.84 µM |
| COCCCn1c(Cn2c(=O)n(C3CC3)c3ccc(F)cc32)nc2ncccc21 [Compound 15, 1-cyclopropyl-5-fluoro-3-((1-(3-methoxypropyl)-1H-imidazo[4,5-b]pyridin-2-yl)methyl)-1H-benzo[d]imidazol-2(3H)-one] | 6.66 | >98.3603 µM |
| CC(C)CCn1c(Cn2c(=O)n(C3CC3)c3ccncc32)nc2cc(Br)cnc21 [Compound 16, 3-((6-bromo-3-isopentyl-3H-imidazo[4,5-b]pyridin-2-yl)methyl)-1-cyclopropyl-1H-imidazo[4,5-c]pyridin-2(3H)-one] | 8.06 | >98.3603 µM |
| CC(C)CCn1c(Cn2c(=O)n(C3CC3)c3ccncc32)nc2cc(CN)cnc21 [Compound 17, 3-((6-(aminomethyl)-3-isopentyl-3H-imidazo[4,5-b]pyridine-2-yl)methyl)-1-cyclopropyl-1H-imidazo[4,5-c]pyridin-2(3H)-one] | 7.93 | >98.3603 µM |
| CC(C)CCn1c(Cn2c(=O)n(C3COC3)c3ccncc32)nc2cc(Br)cnc21 [Compound 18, 3-((6-bromo-3-isopentyl-3H-imidazo[4,5-b]pyridin-2-yl)methyl)-1-(oxetan-3-yl)-1H-imidazo[4,5-c]pyridin-2(3H)-one] | 7.76 | >9.836 µM |
| O=c1n(Cc2nc3cc(Br)cnc3n2CCCCO)c2cnccc2n1C1CC1 [Compound 19, 3-((6-bromo-3-(4-hydroxybutyl)-3H-imidazo[4,5-b]pyridin-2-yl)methyl)-1-cyclopropyl-1H-imidazo[4,5-c]pyridin-2(3H)-one] | 7.72 | >98.3603 µM |
| O=c1n(Cc2nc3cc(Br)cnc3n2CCCCO)c2cnccc2n1C1COC1 [Compound 20, 3-((6-bromo-3-(4-hydroxybutyl)-3H-imidazo[4,5-b]pyridin-2-yl)methyl)-1-(oxetan-3-yl)-1H-imidazo[4,5-c]pyridin-2(3H)-one] | 7.44 | >9.836 µM |
| O=c1n(Cc2nc3cc(Cl)cnc3n2CCCCO)c2cnccc2n1C1CC1 [Compound 21, 3-((6-chloro-3-(4-hydroxybutyl)-3H-imidazo[4,5-b]pyridin-2-yl)methyl)-1-cyclopropyl-1H-imidazo[4,5-c]pyridin-2(3H)-one] | 7.26 | >9.836 µM |
| O=c1n(Cc2nc3cc(F)cnc3n2CCCCO)c2cnccc2n1C1CC1 [Compound 22, 1-cyclopropyl-3-((6-fluoro-3-(4-hydroxybutyl)-3H-imidazo[4,5-b]pyridin-2-yl)methyl)-1H-imidazo[4,5-c]pyridin-2(3H)-one] | 6.40 | >9.836 µM |
| CC(C)CCn1c(Cn2c(=O)n(C3CC3)c3ccncc32)nc2cc(B(O)O)cnc21 [Compound 23, 2-((1-cyclopropyl-2-oxo-1H-imidazo[4,5-c]pyridin-3(2H)-yl)methyl)-3-isopentyl-3H-imidazo[4,5-b]pyridin-6-ylboronic acid] | 6.19 | >98.3603 µM |
| CC(C)CCn1c(Cn2c(=O)n(C3CC3)c3ccncc32)nc2cccnc21 [Compound 24, 1-cyclopropyl-3-((3-isopentyl-3H-imidazo[4,5-b]pyridin-2-yl)methyl)-1H-imidazo[4,5-c]pyridin-2(3H)-one] | 5.91 | >98.3603 µM |
| CC(C)CCn1c(Cn2c(=O)n(C(C)C)c3ccnc(Cl)c32)nc2cccnc21 [Compound 25, 4-chloro-3-((3-isopentyl-3H-imidazo[4,5-b]pyridin-2-yl)methyl)-1-isopropyl-1H-imidazo[4,5-c]pyridin-2(3H)-one] | 5.08 | >24.5901 µM |
| COC(=O)c1cnc2c(c1)nc(Cn1c(=O)n(C3CC3)c3ccncc31)n2CCC(C)C [Compound 26, methyl 2-((1-cyclopropyl-2-oxo-1H-imidazo[4,5-c]pyridin-3(2H)-yl)methyl)-3-isopentyl-3H-imidazo[4,5-b]pyridine-6-carboxylate] | 5.07 | >98.3603 µM |
